Source: ChEMBL document CHEMBL1201862, “PubChem BioAssay data set” (2004)
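These data come from cells grown in 96-well plates and exposed to compound for 48 hours at five concentrations. At the GI50, growth is halved.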 Active and inactive are the calls of the source. No stated cut-off is given here; in the data, active = GI50 up to about 1.1 µM and inactive = higher.

What was measured:
Assay in all cases: DTP human tumour cell line panel, 48 h
786-0 = tested on: 786-0
HCC 2998 = tested on: HCC 2998
HCT-15 = tested on: HCT-15
HL-60 = tested on: HL-60
HT-29 = tested on: HT-29
M14 = tested on: M14
NCI-H226 = tested on: NCI-H226
NCI-H23 = tested on: NCI-H23
OVCAR-3 = tested on: OVCAR-3
OVCAR-8 = tested on: OVCAR-8
RXF 393 = tested on: RXF 393
SF-295 = tested on: SF-295
SK-MEL-28 = tested on: SK-MEL-28
SK-MEL-2 = tested on: SK-MEL-2
UACC-62 = tested on: UACC-62
UO-31 = tested on: UO-31
MDA-MB-231 = tested on: MDA-MB-231
PC-3 = tested on: PC-3
T47D = tested on: T47D
DU-145 = tested on: DU-145

Structure (SMILES)	GI50 (786-0)	GI50 (HCC 2998)	GI50 (HCT-15) [µM]	GI50 (HL-60)	GI50 (HT-29)	GI50 (M14)	GI50 (NCI-H226)	GI50 (NCI-H23)	GI50 (OVCAR-3)	GI50 (OVCAR-8)	GI50 (RXF 393)	GI50 (SF-295)	GI50 (SK-MEL-28)	GI50 (SK-MEL-2)	GI50 (UACC-62)	GI50 (UO-31)	GI50 (MDA-MB-231)	GI50 (PC-3)	GI50 (T47D)	GI50 (DU-145)
Cc1c2ccncc2c(C)c2c1[nH]c1ccc(Oc3ccccc3)cc12	1.78 µM (inactive)	1.94 µM (inactive)	1.44	1.85 µM (inactive)	1.79 µM (inactive)	1.82 µM (inactive)	14.3 µM (inactive)	11.6 µM (inactive)	2.46 µM (inactive)	2.03 µM (inactive)	1.86 µM (inactive)	4.63 µM (inactive)	3.09 µM (inactive)	1.66 µM (inactive)	1.74 µM (inactive)	11 µM (inactive)	–	–	–	–
O=c1ncc(F)cn1C1OC(CO)C(O)C1O (stereo unspecified)	> 36.4 µM (inactive)	16.9 µM (inactive)	> 100	19.3 µM (inactive)	> 30.7 µM (inactive)	> 52 µM (inactive)	> 19.1 µM (inactive)	> 100 µM (inactive)	> 26.7 µM (inactive)	> 27.7 µM (inactive)	> 100 µM (inactive)	> 29.7 µM (inactive)	> 45.6 µM (inactive)	> 28.3 µM (inactive)	> 37.6 µM (inactive)	> 100 µM (inactive)	–	–	–	–
O=C1CCCNn2c(nc3ncccc3c2=O)N1	> 100 µM (inactive)	–	> 100	> 100 µM (inactive)	> 100 µM (inactive)	> 100 µM (inactive)	> 100 µM (inactive)	> 100 µM (inactive)	> 100 µM (inactive)	> 100 µM (inactive)	> 100 µM (inactive)	> 100 µM (inactive)	–	> 100 µM (inactive)	> 100 µM (inactive)	> 100 µM (inactive)	> 100 µM (inactive)	> 100 µM (inactive)	> 100 µM (inactive)	–
Cn1c2c(c3ccccc31)CCN1C(=O)C3SC21C1C(=O)N(c2ccccc2)C(=O)C31 (stereo unspecified)	> 100 µM (inactive)	–	> 100	25 µM (inactive)	> 100 µM (inactive)	> 100 µM (inactive)	40.3 µM (inactive)	> 100 µM (inactive)	> 100 µM (inactive)	> 100 µM (inactive)	> 100 µM (inactive)	> 100 µM (inactive)	25.4 µM (inactive)	0.0256 µM (active)	21.5 µM (inactive)	> 100 µM (inactive)	> 100 µM (inactive)	–	> 100 µM (inactive)	> 100 µM (inactive)
COC(=O)CC(C(C(=O)OC)C(=O)OC)N1C(=O)OC(c2ccccc2)C1c1ccccc1 (stereo unspecified)	> 100 µM (inactive)	34 µM (inactive)	53.6	37 µM (inactive)	> 100 µM (inactive)	> 100 µM (inactive)	> 100 µM (inactive)	> 100 µM (inactive)	> 100 µM (inactive)	> 100 µM (inactive)	74.5 µM (inactive)	> 100 µM (inactive)	> 100 µM (inactive)	> 100 µM (inactive)	> 100 µM (inactive)	> 100 µM (inactive)	–	–	–	–
CCOP(=O)(Cc1nc(C#N)c(N)o1)OCC	> 100 µM (inactive)	> 100 µM (inactive)	> 100	> 100 µM (inactive)	> 100 µM (inactive)	–	> 100 µM (inactive)	–	> 100 µM (inactive)	–	> 100 µM (inactive)	> 100 µM (inactive)	> 100 µM (inactive)	> 100 µM (inactive)	> 100 µM (inactive)	–	> 100 µM (inactive)	> 100 µM (inactive)	–	> 100 µM (inactive)
O=c1c2c3c(sc2nc2n1sc1nc4sc5c(c4c(=O)n12)CCCC5)CCCC3	17.3 µM (inactive)	36.1 µM (inactive)	62.8	27.2 µM (inactive)	41.2 µM (inactive)	98.2 µM (inactive)	> 50.7 µM (inactive)	30.6 µM (inactive)	24.2 µM (inactive)	56.6 µM (inactive)	21 µM (inactive)	64.6 µM (inactive)	> 80.5 µM (inactive)	> 100 µM (inactive)	10.9 µM (inactive)	18.5 µM (inactive)	25.9 µM (inactive)	54.5 µM (inactive)	–	> 44.8 µM (inactive)
C[C@]12CC[C@H](O)CC1=CC[C@@H]1C2CC[C@]2(C)C(=O)N(N)C(=O)CC12 (stereo partly specified)	> 100 µM (inactive)	> 100 µM (inactive)	> 100	> 100 µM (inactive)	> 100 µM (inactive)	> 100 µM (inactive)	> 100 µM (inactive)	> 100 µM (inactive)	> 100 µM (inactive)	> 100 µM (inactive)	> 100 µM (inactive)	> 100 µM (inactive)	> 100 µM (inactive)	> 100 µM (inactive)	> 100 µM (inactive)	> 100 µM (inactive)	–	–	–	–
C/C=C(\C)C(=O)N1c2ccccc2CC1c1c(C)[nH]c2ccccc12 (stereo unspecified)	> 100 µM (inactive)	> 100 µM (inactive)	37	15.1 µM (inactive)	38.4 µM (inactive)	39.3 µM (inactive)	> 100 µM (inactive)	55.2 µM (inactive)	21.5 µM (inactive)	83.8 µM (inactive)	> 100 µM (inactive)	40 µM (inactive)	> 100 µM (inactive)	19.3 µM (inactive)	40.7 µM (inactive)	36.1 µM (inactive)	–	–	–	–
Cc1ccccc1Nc1nc(NNC(=O)Cc2ccccc2)nc(NNC(=O)c2ccncc2)n1	> 10 µM (inactive)	> 10 µM (inactive)	> 10	> 10 µM (inactive)	> 10 µM (inactive)	> 10 µM (inactive)	–	–	–	> 10 µM (inactive)	–	–	> 10 µM (inactive)	–	> 10 µM (inactive)	> 10 µM (inactive)	> 10 µM (inactive)	–	> 10 µM (inactive)	> 10 µM (inactive)
Cc1cc(C)c2c(c1)CC1(Cc3c(C)cc(C)cc3C1=O)C2=O (stereo unspecified)	> 100 µM (inactive)	> 100 µM (inactive)	> 100	> 100 µM (inactive)	–	> 100 µM (inactive)	> 100 µM (inactive)	–	> 100 µM (inactive)	> 100 µM (inactive)	> 100 µM (inactive)	> 100 µM (inactive)	> 100 µM (inactive)	> 100 µM (inactive)	> 100 µM (inactive)	> 100 µM (inactive)	> 100 µM (inactive)	> 100 µM (inactive)	–	> 100 µM (inactive)
CCCCN(CCCC)CC(C(=O)Nc1ccc([N+](=O)[O-])cc1[N+](=O)[O-])/C(C)=N\NC(=S)NN (stereo unspecified)	> 100 µM (inactive)	> 100 µM (inactive)	–	46 µM (inactive)	> 100 µM (inactive)	> 100 µM (inactive)	> 100 µM (inactive)	> 100 µM (inactive)	84.3 µM (inactive)	> 100 µM (inactive)	96.2 µM (inactive)	> 100 µM (inactive)	> 100 µM (inactive)	> 100 µM (inactive)	> 100 µM (inactive)	26.9 µM (inactive)	–	–	–	–
COC(=O)C(=O)C(C#N)c1cccc(Cl)c1 (stereo unspecified)	> 100 µM (inactive)	> 100 µM (inactive)	> 100	> 100 µM (inactive)	> 100 µM (inactive)	> 100 µM (inactive)	> 100 µM (inactive)	> 100 µM (inactive)	> 100 µM (inactive)	> 100 µM (inactive)	> 100 µM (inactive)	> 100 µM (inactive)	> 100 µM (inactive)	> 100 µM (inactive)	> 100 µM (inactive)	> 100 µM (inactive)	–	–	–	–
CN1CCN(C)C12C=CC=CC21CC1	> 100 µM (inactive)	> 100 µM (inactive)	> 100	> 100 µM (inactive)	> 100 µM (inactive)	> 100 µM (inactive)	> 100 µM (inactive)	> 100 µM (inactive)	> 100 µM (inactive)	> 100 µM (inactive)	> 100 µM (inactive)	> 100 µM (inactive)	–	> 100 µM (inactive)	> 100 µM (inactive)	> 100 µM (inactive)	–	–	–	–
CC(N)C(=O)c1ccc(O)cc1 (stereo unspecified)	> 100 µM (inactive)	> 100 µM (inactive)	> 100	> 100 µM (inactive)	> 100 µM (inactive)	> 100 µM (inactive)	> 100 µM (inactive)	> 100 µM (inactive)	> 100 µM (inactive)	> 100 µM (inactive)	> 100 µM (inactive)	> 100 µM (inactive)	> 100 µM (inactive)	> 100 µM (inactive)	> 100 µM (inactive)	> 100 µM (inactive)	–	–	–	–
Cc1ccc2c(O)cc(-c3cccc(Cl)c3)nc2n1	< 0.0255 µM (active)	0.12 µM (active)	< 0.0192	< 0.0169 µM (active)	< 0.0179 µM (active)	0.0306 µM (active)	0.0489 µM (active)	0.272 µM (active)	< 0.01 µM (active)	0.115 µM (active)	–	< 0.0151 µM (active)	0.0916 µM (active)	0.0324 µM (active)	< 0.01 µM (active)	0.902 µM (active)	0.0537 µM (active)	–	–	0.194 µM (active)
COC(=O)CNC(=O)CNC(=O)CSc1nnc(COc2ccc(Cl)cc2)n1-c1ccccc1	> 100 µM (inactive)	42 µM (inactive)	> 100	–	> 100 µM (inactive)	37.4 µM (inactive)	> 100 µM (inactive)	> 100 µM (inactive)	19.8 µM (inactive)	> 100 µM (inactive)	15.4 µM (inactive)	> 100 µM (inactive)	25.1 µM (inactive)	19.4 µM (inactive)	17.5 µM (inactive)	21.4 µM (inactive)	19.1 µM (inactive)	52.7 µM (inactive)	–	> 100 µM (inactive)
